Measurements from patent US4855320A, “5-arylalkyl-4-alkoxy-2(5H)-furanones, intermediates and processes for the preparation thereof and medicaments containing them” (Dr. Willmar Schwabe GmbH & Company, priority 1986, dated 1989).

System: maximum electroshock spasm (MES) in male mice (NMRI)
Experiment: MES test (maximum electroshock spasm), inhibition of the extensor spasm
Format: in vivo
Details: Mus musculus, mice; for responders at 100 mg/kg: 100 mg/kg p.o., % of animals protected 100% against the extensor spasm; for ED50: oral, 1 hour after administration, read-out: ED 50 in the MES test; for responders at 50 mg/kg: 50 mg/kg p.o.
[1] = po, 1 hr., read-out: protective action after 1 hr. (MES test)

Compound: CCOC1=CC(=O)O[C@H]1[C@H](O)c1ccccc1Cl (relative stereo) [Example 66, threo-5-(2-chlorophenylhydroxymethyl)-4-ethoxy-2(5H)-furanone]
- responders at 100 mg/kg [1]: 100%

Compound: COC1=CC(=O)O[C@H]1[C@H](O)c1ccc(Cl)cc1 (relative stereo) [Example 67, threo-5-(4-chlorophenylhydroxymethyl)-4-methoxy-2(5H)-furanone]
- responders at 100 mg/kg [1]: 75%
- ED50: 73.5 mg/kg

Compound: COC1=CC(=O)O[C@H]1[C@H](O)c1ccccc1Br (relative stereo) [Example 68, threo-5-(2-bromophenylhydroxymethyl)-4-methoxy-2(5H)-furanone]
- responders at 100 mg/kg [1]: 100%
- ED50: 23.5 mg/kg

Compound: COC1=CC(=O)O[C@H]1[C@H](O)c1cccc(Br)c1 (relative stereo) [Example 69, threo-5-(3-bromophenylhydroxymethyl)-4-methoxy-2(5H)-furanone]
- responders at 100 mg/kg [1]: 70%
- ED50: 93 mg/kg

Compound: COC1=CC(=O)O[C@H]1[C@H](O)c1ccccc1F (relative stereo) [Example 70, threo-5-(2-fluorophenylhydroxymethyl)-4-methoxy-2(5H)-furanone]
- responders at 100 mg/kg [1]: 100%
- ED50: 22 mg/kg

Compound: COC1=CC(=O)O[C@H]1[C@H](O)c1ccccc1C(F)(F)F (relative stereo) [Example 71, threo-4-methoxy-5-(2-trifluoromethylphenylhydroxymethyl)-2-(5H)-furanone]
- responders at 100 mg/kg [1]: 100%

Compound: COC1=CC(=O)O[C@H]1[C@H](O)c1cccc(C(F)(F)F)c1 (relative stereo) [Example 72, threo-4-methoxy-5-(3-trifluoromethylphenylhydroxymethyl)-2(5H)-furanone]
- responders at 100 mg/kg [1]: 80%

Compound: COC1=CC(=O)O[C@H]1[C@H](O)c1ccc(C(F)(F)F)cc1 (relative stereo) [Example 73, threo-4-methoxy-5-(4-trifluoromethylphenylhydroxymethyl)-2(5H)-furanone]
- responders at 100 mg/kg [1]: 60%

Compound: COC1=CC(=O)O[C@H]1[C@H](O)c1ccccc1[N+](=O)[O-] (relative stereo) [Example 74, threo-4-methoxy-5-(2-nitrophenylhydroxymethyl)-2(5H)-furanone]
- responders at 100 mg/kg [1]: 100%

Compound: CCOC1=CC(=O)O[C@H]1[C@H](O)c1ccc(Cl)cc1Cl (relative stereo) [Example 80, threo-5-(2,4-dichlorophenylhydroxymethyl)-4-ethoxy-2(5H)-furanone]
- responders at 100 mg/kg [1]: 90%

Compound: CCOC1=CC(=O)O[C@H]1[C@H](O)c1cc(Cl)ccc1Cl (relative stereo) [Example 82, threo-5-(2,5-dichlorophenylhydroxymethyl)-4-ethoxy-2(5H)-furanone]
- responders at 150 mg/kg (po, 150 mg/kg p.o., 1 hr., read-out: protective action after 1 hr. (MES test)): 90%

Compound: COC1=CC(=O)O[C@H]1[C@H](O)c1ccc(Cl)c(Cl)c1 (relative stereo) [Example 83, threo-5-(3,4-dichlorophenylhydroxymethyl)-4-methoxy-2(5H)-furanone]
- responders at 100 mg/kg [1]: 50%

Compound: COC1=CC(=O)O[C@H]1[C@H](O)c1cc(Cl)cc(Cl)c1 (relative stereo) [Example 84, threo-5-(3,5-dichlorophenylhydroxymethyl)-4-methoxy-2(5H)-furanone]
- responders at 100 mg/kg [1]: 70%

Compound: COC1=CC(=O)O[C@H]1[C@H](O)c1cc(C(F)(F)F)ccc1Cl (relative stereo) [Example 86]
- responders at 50 mg/kg [1]: 100%

Compound: COC1=CC(=O)O[C@H]1[C@H](O)c1ccc(Cl)cc1C(F)(F)F (relative stereo) [Example 87, threo-5-[(4-chloro-2-trifluoromethylphenyl)-hydroxymethyl]-4-methoxy-2(5H)-furanone]
- responders at 100 mg/kg [1]: 40%

Compound: COC1=CC(=O)O[C@H]1[C@H](O)c1ccc(Br)cc1Cl (relative stereo) [Example 88, threo-5-[(4-bromo-2-chlorophenyl)-hydroxymethyl]-4-methoxy-2(5H)-furanone]
- responders at 100 mg/kg [1]: 80%

Compound: COC1=CC(=O)O[C@@]1(C)[C@H](O)c1ccccc1Cl (relative stereo) [Example 89, threo-5-(2-Chlorophenylhydroxymethyl)-4-methoxy-5-methyl-2(5H)-furanone]
- responders at 100 mg/kg [1]: 100%

Compound: COC1=CC(=O)O[C@H]1[C@H](O)c1ccccc1C (relative stereo) [Example 93, threo-4-methoxy-5-(2-methylphenylhydroxymethyl)-2(5H)-furanone]
- responders at 100 mg/kg [1]: 37.5%

Compound: COC1=CC(=O)O[C@H]1[C@H](O)c1cccc(F)c1 (relative stereo) [Example 96, threo-5-(3-fluorophenylhydroxymethyl)-4-methoxy-2-(5H)-furanone]
- responders at 100 mg/kg [1]: 62.5%
- ED50: 74 mg/kg

Compound: COC1=CC(=O)O[C@H]1[C@H](O)c1cccc(Cl)c1 (relative stereo) [Example 98, threo-5-(3-chlorophenylhydroxymethyl)-4-methoxy-2(5H)-furanone]
- responders at 100 mg/kg [1]: 25%
- ED50: 84.5 mg/kg

Compound: CCCOC1=CC(=O)O[C@H]1[C@H](O)c1ccccc1Cl (relative stereo) [Example 99, threo-5-(2-chlorophenylhydroxymethyl)-4-propoxy-2-(5H)-furanone]
- responders at 100 mg/kg [1]: 90%

Compound: COC1=CC(=O)O[C@H]1[C@H](O)c1ccc(Br)cc1 (relative stereo) [Example 100, threo-5-(4-bromophenylhydroxymethyl)-4-methoxy-2(5H)-furanone]
- responders at 100 mg/kg [1]: 100%
- ED50: 67 mg/kg

Compound: COC1=CC(=O)O[C@H]1[C@H](O)c1c(F)cccc1Cl (relative stereo) [Example 102, threo-5-(2-chloro-6-fluorophenylhydroxymethyl)-4-methoxy-2(5H)-furanone]
- responders at 100 mg/kg [1]: 62.5%

Compound: COC1=CC(=O)O[C@H]1[C@H](O)c1c(Cl)cccc1Cl (relative stereo) [Example 103, threo-5-(2,6-dichlorophenylhydroxymethiyl)-4-methoxy-2(5H)-furanone]
- responders at 100 mg/kg [1]: 100%
- ED50: 37 mg/kg

Compound: COC1=CC(=O)O[C@H]1[C@H](O)CCc1ccccc1 (relative stereo) [Example 105, threo-4-methoxy-5-(α-hydroxy-γ-phenylpropyl)-2(5H)-furanone]
- responders at 100 mg/kg [1]: 12.5%

Compound: CCOC1=CC(=O)O[C@H]1[C@H](OC)c1ccc(Cl)cc1Cl (relative stereo) [Example 106, threo-4-Ethoxy-5-[methoxy-(2,4-dichlorophenyl)-methyl]-2(5H)-furanone]
- responders at 100 mg/kg [1]: 30%

Compound: COCO[C@H](c1ccccc1Cl)[C@@H]1OC(=O)C=C1OC (relative stereo) [Example 107, threo-4-Methoxy-5-[methoxymethoxy-(2-chlorophenyl)-methyl]-2(5H)-furanone]
- responders at 100 mg/kg [1]: 100%
- ED50: 24.5 mg/kg

Compound: COCCOCO[C@H](c1ccccc1Cl)[C@@H]1OC(=O)C=C1OC (relative stereo) [Example 108, threo-4-Methoxy-5-[methoxyethoxymethoxy-(2-chlorophenyl)-methyl]-2(5H)-furanone]
- responders at 100 mg/kg [1]: 70%

Compound: COC1=CC(=O)O[C@H]1[C@H](OC)c1ccccc1 (relative stereo) [Example 109, threo-4-methoxy-5-[methoxy-(phenyl)-methyl]-2(5H)-furanone]
- responders at 100 mg/kg [1]: 40%

Compound: COC1=CC(=O)O[C@H]1[C@H](OC)c1ccccc1Cl (relative stereo) [Example 110, threo-4-methoxy-5-[methoxy-(2-chlorophenyl)-methyl]-2(5H)-furanone]
- responders at 100 mg/kg [1]: 100%
- ED50: 27.5 mg/kg

Compound: COC1=CC(=O)O[C@H]1[C@H](OC)c1ccc(Cl)cc1Cl (relative stereo) [Example 111, threo-4-methoxy-5-[methoxy-(2,4-dichlorophenyl)-methyl]-2(5H)-furanone]
- responders at 100 mg/kg [1]: 100%

Compound: COC1=CC(=O)O[C@H]1[C@H](OC)c1cc(Cl)ccc1Cl (relative stereo) [Example 112, threo-4-methoxy-5-[methoxy-(2,5-dichlorophenyl)-methyl]-2(5H)-furanone]
- responders at 100 mg/kg [1]: 100%

Compound: COCO[C@H](c1ccccc1)[C@@H]1OC(=O)C=C1OC (relative stereo) [Example 113, threo-4-methoxy-5-[methoxymethoxy-(phenyl)-methyl]-2(5H)-furanone]
- responders at 100 mg/kg [1]: 100%

Compound: COCO[C@H](c1ccc(Cl)cc1Cl)[C@@H]1OC(=O)C=C1OC (relative stereo) [Example 114, threo-4-methoxy-5-[methoxymethoxy-(2,4-dichlorophenyl)-methyl]-2(5H)-furanone]
- responders at 100 mg/kg [1]: 10%

Compound: COCO[C@H](c1ccccc1F)[C@@H]1OC(=O)C=C1OC (relative stereo) [Example 115, threo-4-methoxy-5-[methoxymethoxy-(2-fluorophenyl)-methyl]2(5H)-furanone]
- responders at 100 mg/kg [1]: 100%

Compound: COCO[C@H](c1ccccc1C)[C@@H]1OC(=O)C=C1OC (relative stereo) [Example 116, threo-4-methoxy-5-[methoxymethoxy-(2-methylphenyl)-methyl]-2(5H)-furanone]
- responders at 100 mg/kg [1]: 70%

Compound: COCO[C@H](c1ccccc1Br)[C@@H]1OC(=O)C=C1OC (relative stereo) [Example 118, threo-4-methoxy-5-[methoxymethoxy-(2-bromophenyl)-methyl]-2(5H)-furanone]
- responders at 100 mg/kg [1]: 100%

Compound: COC1=CC(=O)O[C@H]1[C@H](OC)c1ccccc1F (relative stereo) [Example 123, threo-4-methoxy-5-[methoxy-(2-fluorophenyl)-methyl]-2(5H)-furanone]
- responders at 50 mg/kg [1]: 100%

Compound: COC1=CC(=O)O[C@H]1[C@H](OC)c1ccccc1Br (relative stereo) [Example 124, threo-4-methoxy-5-[methoxy-(2-bromophenyl)-methyl]-2(5H)-furanone]
- responders at 50 mg/kg [1]: 100%

Compound: COCC(OC)O[C@H](c1ccccc1Cl)[C@@H]1OC(=O)C=C1OC (stereo partly drawn) [Example 121, threo-5-[1',2'-dimethoxyethoxy-(2-chlorophenyl)-methyl]-4-methoxy-2(5H)-furanone]
- responders at 50 mg/kg [1]: 70%
